One series deals with HL-60 strain. The series can be described thus: MTT assay, HL-60 strain. It is filed as cell-based. The method, then: (§1) Specifically, first, cells plated in a 96-well microplate such that the density thereof became 5×10^3 cells/well were cultured for one night in a culture solution having the same composition as those in the reference examples. Thereafter, the culture solution was exchanged with 100 μL of a culture solution of which the concentration of peptides is 0 μM to 100 μM for culturing for 72 hours. After the culturing, an MTT-containing PBS solution was added to the culture solution, and the mixture was incubated for 4 hours. Then, formazan which was generated by putting 100 μL of isopropanol (containing 34 (v/v) % of hydrochloric acid) into each of the wells was dissolved. The absorbance of each of the wells of the microplate at 570 nm was measured using a microplate reader. As controls, culturing was performed in the same manner except that no peptide was added to the strains, an MTT assay was performed thereon, and the absorbance at 570 nm was measured (untreated).
(§2) In the method for measuring the viable cell counts, cells were cultured for 3 days similarly to Example 1 except that a 25 μM (10 μM for an HL-60 strain, a K562 strain, and a U937 strain) culture solution containing a control peptide or a peptide 1 was used, and the viable cell counts were measured. As a comparison, culturing was performed similarly to the above using a culture solution containing no peptide, and the viable cell counts were measured (untreated).
(§3) In addition, in the method for performing an MTT assay, cells were cultured for 72 hours similarly to Example 2 except that a peptide to be added to a strain was set to a control peptide or a peptide 1 at 25 μM (10 μM for an HL-60 strain, a K562 strain, and a U937 strain), an MTT assay was performed thereon, and the absorbance at 570 nm was measured. As a comparison, culturing was performed similarly to the above using a culture solution containing no peptide, and the MTT assay was performed thereon (untreated).

The next series relates to 293 FLG. The series can be described thus: MTT assay, 293 FLG cells. Type of series: cell-based. The method, then: as §1, with “Thereafter, the culture solution was exchanged with 100 μL of a culture solution of which the concentration of peptides is 0 μM to 100 μM for culturing for 72 hours.” left out
as §2, §3
Specifically, the cells were cultured for 72 hours similarly to Example 2 except that a peptide to be added to a cell was set to a peptide 1, 2, 5, or 6, MTT assays were performed thereon, and the absorbance at 570 nm was measured. As a comparison, culturing was performed similarly to the above using a culture solution containing no peptide, and the MTT assay was performed thereon (untreated).
Specifically, the cells were cultured for 72 hours similarly to Example 2 except that peptides to be added to cell strains were set to peptides 7 to 14, MTT assays were performed thereon, and the absorbance at 570 nm was measured. […]
Specifically, the cells were cultured for 72 hours similarly to Example 2 except that a peptide to be added to a cell strain was set to a peptide 15 or 16, an MTT assay was performed thereon, and the absorbance at 570 nm was measured. […]

In the next series the test system is MKN45 cell strains. In words: Cancer mouse model transplanted with MKN45 cell strain. Type of series: in vivo. The following applies: nude mice with MKN45 transplant. How it is done: Rearing of 10 nude male mice (BALB/cAJcl-nu/nu, purchased from CLEA Japan, Inc.) at the age of 7 weeks was started, and MKN45 cell strains separately cultured were transplanted into the mice by being subcutaneously injected thereinto on day 31. The day on which the transplantation was performed was set as day 0, the mice were divided into two groups (peptide 1-administered group and control peptide-administered group) of 5 mice on day 14 of the transplantation, 4 mice were selected among the 5 mice from each group, and the peptide 1 or the control peptide was administered. The remaining one mouse was set as a spare. In the peptide 1-administered group, 100 μL of a 30 μM peptide 1 solution (solution prepared by adding a methylcellulose solution to the solution after the peptide 1 was dissolved in PBS (−)) was subcutaneously injected into a tumor site (site into which the MKN45 cell strain was injected) 4 times every 3 days. In the control peptide-administered group, 100 μL of a 30 μM control peptide solution (solution prepared by adding a methylcellulose solution to the solution after the control peptide was dissolved in PBS (−)) was subcutaneously injected into a tumor site 4 times on the same days as those in the peptide 1-administered group.
The results in which the points of time (days) at which a peptide solution was administered to each mouse and the volume (mm^3) of a tumor site were temporally measured are shown in FIG. 21. For the volume of the tumor site, the width and the length of the tumor site determined from the appearance of the mouse were measured and calculated using the following formula. [Volume(mm^3) of Tumor Site]=([Width(mm) of Tumor Site]^2×[Length(mm) of Tumor Site])/2
The “width of tumor site” referred herein means a maximum width of a portion in which the skin has risen due to the tumor and the “length of tumor site” means a maximum length of a portion in which the skin has risen due to the tumor.

The test system of another series is 293 FLG/LIX1L. The series can be described thus: Number of colonies formed, 293 FLG/LIX1L (Example 6). It is filed as cell-based. The settings on record: peptide 25 μM, cultured for 14 days. The method, then:
Specifically, 293 FLG was plated in one plate (6 wells/plate) and 293 FLG/LIX1L was plated in two plates such that the density of the cells became 1×10^4 cells/3.5 cm well. Among these, one of the plates in which 293 FLG was plated and the plate in which 293 FLG/LIX1L was plated were cultured for 14 days in a 10% vol. % FCS-containing DMEM culture medium. The remaining one of the plates in which 293 FLG/LIX1L was plated was cultured for 14 days in a 10% vol. % FCS-containing DMEM culture medium in which the peptide 1 was made to be included such that the concentration thereof became 25 μM. Each of the wells after the culturing was observed under a microscope, and the number of colonies formed was measured.

Take `CC(C)[C@H](NC(=O)[C@H](Cc1ccc(O)cc1)NC(=O)[C@H](CS)NC(=O)[C@@H](NC(=O)[C@H](Cc1ccc(O)cc1)NC(=O)[C@@H]1CCCN1C(=O)[C@@H]1CCCN1C(=O)[C@H](CO)NC(=O)[C@H](CC(N)=O)NC(=O)[C@H](CO)NC(=O)[C@@H]1CCCN1C(=O)CCCCCNC(=O)[C@H](CCCNC(=N)N)NC(=O)[C@H](CCCNC(=N)N)NC(=O)[C@H](CCCNC(=N)N)NC(=O)[C@H](CCC(N)=O)NC(=O)[C@H](CCCNC(=N)N)NC(=O)[C@H](CCCNC(=N)N)NC(=O)[C@H](CCCCN)NC(=O)[C@H](CCCCN)NC(=O)[C@H](CCCNC(=N)N)NC(=O)CNC(=O)[C@@H](N)Cc1ccc(O)cc1)C(C)C)C(N)=O` [peptide 1, YGRKKRRQRRR-X-PSNSPPYVCYV-NH2]: the “concentration at which a dominant effect of inhibiting the cell proliferation was recognized” value in the series with HL-60 strain (MTT assay, 72 hours) was “greater than or equal to 6.25 μM”. Also, the “cell proliferation (viable cell counts and MTT assay)” value is given as “inhibited” in the series with HL-60 strain (peptide 10 μM, 3 days / 72 hours) and “not inhibited” with 293 FLG (peptide 25 μM, 3 days / 72 hours). Further, the “cell proliferation (MTT assay, absorbance at 570 nm)” value in the series with 293 FLG (72 hours, peptide concentrations up to 250 μM) is given as “inhibited”. Further, in the series on MKN45 cell strains (100 μL of 30 μM peptide solution 4 times, vs spare mice given nothing), the body weight entry was “no particularly significant change”. In the series on MKN45 cell strains (100 μL of 30 μM peptide solution subcutaneously into tumor site 4 times every 3 days from day 14), the “volume (size) of the tumor site” value is “rarely changed”. In addition, the “number of colonies formed” value in the series on 293 FLG/LIX1L is listed as “inhibited”.

Values taken from US9676820B2, “Method for inhibiting proliferation of high LIX1L-expressing tumor cell, and tumor cell proliferation-inhibiting peptide” (National University Corporation Hamamatsu University School …, priority 2013, dated 2017).
